Laboratory results: PubChem BioAssay (NCI)
“And” between values parts separate entries of the source, which are not always exact repeats. Equal values may be shown once.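 Test compounds were applied to cells in 96-well plates for 48 hours at 5 doses. The concentration for 50% growth inhibition is given as GI50. The concentration for full growth arrest is given as TGI.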

What was measured:
Test in all cases: DTP human tumour cell line panel, 48 h
[1] = test system: LXFL 529 NSCLC
[2] = test system: KM20L2 colon
[3] = test system: DLD-1 colon
[4] = test system: SNB-78 CNS
[5] = test system: BT-549 breast
[6] = test system: MDA-MB-231 breast
[7] = test system: MDA-MB-435
[8] = test system: MCF7 breast
[9] = test system: NCI/ADR-RES ovarian

| SMILES | TGI [1] | TGI [2] | TGI [3] | TGI [4] | TGI [5] | TGI [6] | TGI [7] | TGI [8] | TGI [9] | GI50 [5] | GI50 [6] | GI50 [7] | GI50 [8] | GI50 [9] |
| --- | --- | --- | --- | --- | --- | --- | --- | --- | --- | --- | --- | --- | --- | --- |
| C=C[C@@]1(C)CCC2(O)C(CCC3C2(C)CCC[C@@]3(C)COC(=O)CC(=O)OC)C1 (stereo partly drawn) | 33 µM | 33.6 µM | 32.1 µM | 68.9 µM | – | – | – | – | – | – | – | – | – | – |
| COC(=O)[C@H]1[C@H]2C[C@@H]3c4[nH]c5cc(OC)ccc5c4CCN3C[C@H]2C[C@@H](OC(=O)c2cc(OC)c(OC)c(OC)c2)[C@@H]1OC | 35.7 µM | 35.3 µM | > 100 µM | – | – | – | – | – | – | – | – | – | – | – |
| COc1ccc(C(C#N)NC23CC4CC(CC(C4)C2)C3)cc1OC (stereo not drawn) | – | – | – | – | > 100 µM | > 100 µM | > 100 µM | > 100 µM | > 100 µM | – | – | – | – | – |
| Cc1csc(/C=N/NC(=O)c2nnn(-c3ccnc4c(C(F)(F)F)cccc34)c2C)c1 | – | – | – | – | > 100 µM | > 100 µM | > 100 µM | > 100 µM | > 100 µM | > 100 µM | 31.7 µM | 85.3 µM | > 100 µM | > 100 µM |
| COc1cc(NS(C)(=O)=O)ccc1Nc1c2ccccc2nc2c(C)cccc12 | – | – | – | – | 4.62 µM and 2.86 µM | 7.01 µM and 15.3 µM | 11.9 µM and 18.1 µM | 4.42 µM and 11.9 µM | 76.1 µM and 54.9 µM | 0.412 µM and 0.394 µM | 1.73 µM and 2.88 µM | 0.626 µM and 1.44 µM | 0.0248 µM and 0.0337 µM | 0.992 µM and 1.45 µM |
| Cc1cc(Cc2cc(C)c(O)c(C)c2)cc(C)c1O | – | – | – | – | 17.6 µM | 38.3 µM | – | 53.7 µM | 48.5 µM | 3.78 µM | 6.85 µM | – | 3.83 µM | 3.95 µM |
| O=C(/C=C1\C(=O)N(Cc2ccc([N+](=O)[O-])cc2)c2ccccc21)c1ccc(OCCN2CCCCC2)cc1 | – | – | – | – | 3 µM | 2.67 µM | 2.52 µM | 4.1 µM | 5.76 µM | 1.64 µM | 1.3 µM | 1.2 µM | 1.43 µM | 2.04 µM |
| CCCCSN1C(=O)c2ccccc2C1=S | – | – | > 100 µM | > 100 µM | – | – | – | – | – | – | – | – | – | – |
| O=C(Cn1c(=O)c(-c2ccccc2)nc2ccccc21)c1ccc(Cl)cc1 | – | – | – | – | – | > 100 µM | > 100 µM | > 100 µM | > 100 µM | – | 40.9 µM | > 100 µM | 71.2 µM | 48 µM |
| CC1(C)OC(=O)[C@@](C)([C@H](O)c2ccccc2)O1 | > 100 µM | > 100 µM | > 100 µM | > 100 µM | – | – | – | – | – | – | – | – | – | – |
| CN(CCC#N)c1ccc(/C=C(\C#N)c2cccc(C(F)(F)F)c2)cc1 | – | – | – | – | 34.3 µM | > 100 µM | 6 µM | > 100 µM | > 100 µM | 3.28 µM | 4.56 µM | 2.07 µM | 0.544 µM | 3.68 µM |
| O=C(/C=C/C12c3ccccc3C(c3ccccc31)C1C(=O)N(c3ccccc3)C(=O)C12)c1ccc(Cl)cc1 (stereo not drawn) | – | – | – | – | 2.88 µM | 3.9 µM | 5.39 µM | > 100 µM | 8.47 µM | 1.37 µM | 1.64 µM | 1.93 µM | 0.885 µM | 2.16 µM |
| N#CCCN(CCC#N)C(=O)c1cccc(C(=O)N(CCC#N)CCC#N)c1 | 19.2 µM | > 63.8 µM | > 100 µM | > 100 µM | – | – | – | – | – | – | – | – | – | – |
| COc1cc2c(c(OC)c1OC)C(=O)CC(c1cccc(NC(=O)c3ccc(Br)cc3)c1)O2 (stereo not drawn) | – | – | – | – | 6.39 µM | – | 4.46 µM | 49.3 µM | 9.45 µM | 2.09 µM | – | 1.46 µM | 1.9 µM | 2.41 µM |
| Cc1c(C)c2c(c(C)c1NC(=O)/C=C\C(=O)O)CCC(C)(CCCC(C)CCCC(C)CCCC(C)C)O2 (stereo not drawn) | – | – | – | – | 2.69 µM | 3.55 µM | 3.44 µM | 5.32 µM | 7.46 µM | 1.35 µM | 1.94 µM | 1.67 µM | 2.2 µM | 2.54 µM |
| O=C(CCN1CCOCC1)Nc1ccc(F)cc1F | – | – | – | – | > 100 µM | > 100 µM | > 100 µM | > 100 µM | > 100 µM | – | – | – | – | – |
| COc1cc([N+](=O)[O-])c(S(=O)(=O)O)cc1NS(=O)(=O)c1ccc(C)cc1 | – | – | – | – | > 100 µM | > 100 µM | > 100 µM | > 100 µM | > 100 µM | – | – | – | – | – |
| O=C(C/C(=N\NC(=O)C[n+]1ccccc1)C(=O)Nc1nc2ccc([N+](=O)[O-])cc2s1)CC(c1ccccc1)c1c(O)c2ccccc2oc1=O (stereo not drawn) | – | > 100 µM | > 100 µM | – | – | – | – | – | – | – | – | – | – | – |
| O=C1c2ccccc2NC(c2cc(Cl)cc(Cl)c2O)N1CCc1ccccn1 (stereo not drawn) | – | – | – | – | > 100 µM | > 100 µM | > 100 µM | > 100 µM | > 100 µM | – | – | – | – | – |
| C=C1C(=O)O[C@H]2[C@H]1CC/C(Cn1cc(CNCCc3c[nH]c4ccc(Cl)cc34)nn1)=C\CC[C@@]1(C)O[C@@H]21 | – | – | – | – | 17 µM | 16.2 µM | 21 µM | 11.5 µM | > 100 µM | 3.88 µM | 4.04 µM | 6.09 µM | 2.59 µM | > 100 µM |
| COc1cc(N2CCN(C(C)C)CC2)ccc1Nc1nc(Nc2cccc3ncccc23)c2cc[nH]c2n1 | – | – | – | – | 13.6 µM | 11 µM | > 25 µM | > 25 µM | > 25 µM | 4.75 µM | 4.37 µM | 5.47 µM | 1.3 µM | 8.45 µM |
| Cn1cc(C2=C(c3c4n(c5ccccc35)CCCC4)C(=O)NC2=O)c2ccccc21 | – | – | – | – | > 25 µM | > 25 µM | > 15.2 µM | > 25 µM | > 25 µM | > 18.5 µM | > 20.2 µM | 1.08 µM | 6.58 µM | 7.81 µM |
| CCCCN(CCCC)c1ccc(C(=N)c2ccc(N(C)C)cc2)cc1 | – | – | – | – | 2.64 µM | 2.88 µM | 1.33 µM | 1.51 µM | 1.27 µM | 1.29 µM | 1.32 µM | 0.348 µM | 0.377 µM | 0.335 µM |
| NC(=O)c1cc(-c2ccncc2)cc(-c2ccccc2)c1N | – | – | – | – | > 25 µM | > 25 µM | > 25 µM | > 25 µM | > 25 µM | 22.5 µM | 12.2 µM | > 25 µM | > 25 µM | > 21 µM |
| C/C(=N/NC(=O)c1ccncc1)c1ccc(NC(=O)C(=O)Nn2c(=S)[nH]c3ccccc3c2=O)cc1 | – | – | – | – | > 100 µM | > 100 µM | > 100 µM | > 100 µM | > 100 µM | – | – | – | – | – |
